The text below walks through data of ChEMBL document CHEMBL1135348, “Synthesis and anticancer evaluation of vitamin K(3) analogues” (Bioorg Med Chem Lett, 2002).

For one test, the system named is A549. Kind of test: Concentration required for 50% inhibition of growth in human lung carcinoma cell line was determined. The class given is functional, cell-based.
Test [1] concerns Detroit 551. The test can be described thus: Concentration required for 50% inhibition of growth in normal human embryonic skin fibroblast (Detroit551c) cell line was determined. The test is classed as functional, cell-based.
Another test relates to HepG2. The test can be described thus: Concentration required for 50% inhibition of growth in human liver hepatoblastoma (Hep G2) cell line was determined. The class given is functional, cell-based.
For the next test, the system named is MKN-45. Kind of test: Concentration required for 50% inhibition of growth in human stomach adenocarcinoma (MKN45) cell line was determined. The class given is functional, cell-based.
A further test deals with MCF7. Kind of test: Concentration required for 50% inhibition of growth in mammary gland breast adenocarcinoma (MCF-7) cell line was determined. To be noted: Homo sapiens. The test is classed as functional, cell-based.
The next test relates to MES-SA. The test can be described thus: Concentration required for 50% inhibition of growth in human uterine sarcoma (MES-SA) cell line was determined. The class given is functional, cell-based.
The nature of test [2]: Concentration required for 50% inhibition of growth in human multidrug resistance uterine sarcoma (MES-SA/Dx5 ) cell line was determined. The test is classed as functional, cell-based.
A further test has as its system SW480. Kind of test: Concentration required for 50% inhibition of growth in human colon adenocarcinoma (SW-480) cell line. The test is classed as functional, cell-based.
The subject of the next test is WI-38. Kind of test: Concentration required for 50% inhibition of growth in normal human lung fibroblast (WI-38 cell line) cell line was determined. The class given is functional, cell-based.
In a further test the test system is NPC-TW-039. The test can be described thus: Concentration required for 50% inhibition of growth in human nasopharyngeal carcinoma (TW-039) cell line was determined.
The nature of test [3]: Dose required for 50% inhibition of growth of Hep3B cells. The class given is functional, Hep 3B2. Particulars: Homo sapiens, read-out: ID50 (the source's name).
The subject of test [4] is Detroit 551. Kind of test: Concentration required for 50% inhibition of growth in normal human embryonic skin fibroblast cell line was determined. The class given is functional, cell-based.

Some results are limits rather than exact numbers.

For the compound `CC1=C(SCCCO)C(=O)c2ccccc2C1=O`, the IC50 with A549 was more than 10 µM; in the test with Detroit 551 [1], 5.26 µM; in the test with HepG2 it was 9.53 µM; with MKN-45, 6.4 µM; in the test with MCF7 it was 5.16 µM; with MES-SA, more than 10 µM. For the same compound, the IC50 in test [2] was more than 10 µM; in the test with SW480, 4.85 µM; in the test with WI-38 it was more than 10 µM; in the test on NPC-TW-039, more than 10 µM.
In the case of `CCCCC1=C(C)C(=O)c2ccccc2C1=O`, the IC50 in test [3] is 78 µM.
Regarding `CC1=C(SCCCCO)C(=O)c2ccccc2C1=O`, the IC50 is more than 10 µM in the test on A549; 7.57 µM with Detroit 551 [4]; more than 10 µM in the test on HepG2; 6.78 µM in the test on MKN-45; 5.78 µM with MCF7; more than 10 µM with MES-SA. Moreover, the IC50 in test [2] is more than 10 µM; in the test on SW480 it was 4.51 µM; in the test on WI-38, more than 10 µM; with NPC-TW-039, more than 10 µM.
On to `CC1=C(SCCCCCCO)C(=O)c2ccccc2C1=O`, for which the IC50 was more than 10 µM in the test with A549; more than 10 µM in the test with Detroit 551 [4]; more than 10 µM in the test on HepG2; more than 10 µM with MKN-45; 9.28 µM with MCF7; more than 10 µM in the test on MES-SA. For the same compound, the IC50 (in test [2]; with SW480; in the test with WI-38; in the test on NPC-TW-039) was more than 10 µM in each case.
With `CCCCCCCCSC1=C(C)C(=O)c2ccccc2C1=O`, the IC50 in test [3] is 100 µM.
Turning to `CC1=C(SCCO)C(=O)c2ccccc2C1=O`, the IC50 in the test on A549 was more than 10 µM; with Detroit 551 [1] it was 8.17 µM; in test [3], 5.6 µM; with HepG2, 8.4 µM; in the test with MKN-45, 5.16 µM; in the test on MCF7 it was 5.19 µM. Also, the IC50 is more than 10 µM in the test with MES-SA; more than 10 µM in test [2]; 5.14 µM with SW480; 7.37 µM with WI-38; more than 10 µM with NPC-TW-039.
Take `CCCCOC1=C(C)C(=O)c2ccccc2C1=O`: the IC50 in [3] amounted to 55 µM.
As for `CCCCCCCCOC1=C(C)C(=O)c2ccccc2C1=O`, the IC50 in [3] was determined as 140 µM.
Turning to `CC1=C(SC(C)C(C)O)C(=O)c2ccccc2C1=O` (stereo not drawn), the IC50 with A549 is more than 10 µM; in the test with Detroit 551 [4], more than 10 µM; in the test with HepG2, more than 10 µM; with MKN-45, 5.64 µM; in the test with MCF7, more than 10 µM; in the test with MES-SA, more than 10 µM. Moreover, the IC50 in test [2] was more than 10 µM; in the test with SW480, 5.53 µM; with WI-38, more than 10 µM; in the test with NPC-TW-039, more than 10 µM.
With `CCCSC1=C(C)C(=O)c2ccccc2C1=O`, the IC50 in test [3] worked out at 14 µM.
Take `CCCCSC1=C(C)C(=O)c2ccccc2C1=O`: in test [3], the IC50 amounted to 15 µM.
As to `CC1=C(SCC(C)O)C(=O)c2ccccc2C1=O` (racemic), the IC50 with A549 worked out at 4.74 µM; in the test on Detroit 551 [1], 4.61 µM; in the test on HepG2, 5.59 µM; with MKN-45 it was 3.92 µM; with MCF7, 4.61 µM; in the test on MES-SA it was 7.11 µM. The IC50 in test [2] is 5.1 µM; in the test with SW480, 5.19 µM; in the test with WI-38, 5.06 µM; with NPC-TW-039, more than 10 µM.
As to `CC1=CC(=O)c2ccccc2C1=O` [MENADIONE], the IC50 in [3] stood at 10 µM.
